# In patent US4822811A, “Carbazole lipoxygenase inhibiting compounds, compositions and use” (Abbott Laboratories, priority 1988, dated 1989):
# Molecular target: T1, 5-lipoxygenase (Rattus norvegicus, UniProt P12527)
# T1 construct: 20,000xg supernatant from 6×10^4 homogenized RBL-1 cells; endogenous in cells; host or cells: RBL-1 cells (20,000xg supernatant of homogenate)
# T1 sequence (P12527 1-673): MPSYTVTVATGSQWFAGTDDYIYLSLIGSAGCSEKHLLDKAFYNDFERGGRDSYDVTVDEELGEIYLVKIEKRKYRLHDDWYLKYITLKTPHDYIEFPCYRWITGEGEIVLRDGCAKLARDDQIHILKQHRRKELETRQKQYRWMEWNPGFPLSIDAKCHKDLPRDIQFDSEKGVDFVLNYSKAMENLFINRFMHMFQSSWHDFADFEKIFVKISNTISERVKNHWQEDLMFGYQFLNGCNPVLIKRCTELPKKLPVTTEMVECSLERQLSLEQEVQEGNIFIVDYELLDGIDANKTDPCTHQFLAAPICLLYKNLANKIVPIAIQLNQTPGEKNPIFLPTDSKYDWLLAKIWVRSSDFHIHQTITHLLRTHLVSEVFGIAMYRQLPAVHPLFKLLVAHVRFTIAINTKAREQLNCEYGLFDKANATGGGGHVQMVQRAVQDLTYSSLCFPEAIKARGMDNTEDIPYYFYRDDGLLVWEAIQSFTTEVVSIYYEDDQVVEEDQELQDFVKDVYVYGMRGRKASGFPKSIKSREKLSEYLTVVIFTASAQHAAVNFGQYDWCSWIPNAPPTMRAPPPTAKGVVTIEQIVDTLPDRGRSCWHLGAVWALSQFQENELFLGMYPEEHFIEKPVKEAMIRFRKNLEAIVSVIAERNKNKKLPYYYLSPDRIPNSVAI
# Assay: Lipoxygenase IC50 Determination (in vitro 5-lipoxygenase inhibition, 20,000xg supernatant from homogenized RBL-1 cells)
# Type: biochemical
# Settings: radiolabelled arachidonic acid, 2% DMSO, triplicate incubations, read-out: In vitro 5-lipoxygenase inhibitory potency IC50
# Experimental: Lipoxygenase IC50 Determination
# Assays to determine 5-lipoxygenase activity were performed in […] incubations containing the 20,000xg supernatant from 6×10^4 homogenized RBL-1 cells, 2% DMSO vehicle and various concentrations of the test compound. Reactions were initiated by addition of radiolabelled arachidonic acid and terminated by acidification and ether extraction. Reaction products were separated from nonconverted substrate by thin layer chromatography and measured by liquid scintillation spectroscopy. All treatments were evaluated in triplicate incubations. Inhibition of 5-lipoxygenase activity was computed by comparison of the quantity of products formed in the treatment incubations to the mean product formation in vehicle control groups (n=8). IC50 values and 95% confidence limits were computed by linear regression analysis of percentage inhibition versus log inhibitor concentration plots. The results of the assay indicate that the compounds are inhibitors of 5-lipoxygenase.
row,Compound,IC50
1,CC(=O)N(O)C(C)c1ccc2oc3ccccc3c2c1 (stereo not drawn) [Example 1],290 nM
2,"CCn1c2ccccc2c2cc(CN(O)C(=O)NC)ccc21 [Example 4, N-hydroxy-N-(9-ethylcarbaz-3-ylmethyl) N-methyl urea]",390 nM
3,"CCn1c2ccccc2c2cc(C(C)N(O)C(N)=O)ccc21 (stereo not drawn) [Example 5, N-hydroxy-N-[1-(9-ethylcarbaz-3-yl)ethyl] urea]",380 nM
